# Test results from ChEMBL document CHEMBL1649300, “Bacterial strain-to-strain variation in pharmacodynamic index magnitude, a hitherto unconsidered factor in establishing antibiotic clinical breakpoints” (2009).
# How the values were obtained:
# Staphylococcus aureus [1] = experiment: Antibacterial activity against Staphylococcus aureus SMH36945 by broth dilution method
# Staphylococcus aureus [2] = experiment: Antibacterial activity against Staphylococcus aureus SMH36742 by broth dilution method
# Staphylococcus aureus [3] = experiment: Antibacterial activity against Staphylococcus aureus SMH36633 by broth dilution method
# Staphylococcus aureus [4] = experiment: Antibacterial activity against Staphylococcus aureus SMH37099 by broth dilution method
# Staphylococcus aureus [5] = experiment: Antibacterial activity against Staphylococcus aureus SMH37312 by broth dilution method
# Staphylococcus aureus [6] = experiment: Antibacterial activity against Staphylococcus aureus SMH38004 by broth dilution method; format: functional
# Staphylococcus aureus [7] = experiment: Antibacterial activity against Staphylococcus aureus SMH37276 by broth dilution method; format: functional
# Staphylococcus aureus [8] = experiment: Antibacterial activity against Staphylococcus aureus SMH37390 by broth dilution method; format: functional
compound,measurement,setting,value
COc1c(N2C[C@@H]3CCCN[C@@H]3C2)c(F)cc2c(=O)c(C(=O)O)cn(C3CC3)c12 [MOXIFLOXACIN],MIC,Staphylococcus aureus [1],2 µg/mL
same,MIC,Staphylococcus aureus [2],1 µg/mL
same,MIC,Staphylococcus aureus [3],0.03 µg/mL
same,MIC,Staphylococcus aureus [4],0.03 µg/mL
same,MIC,Staphylococcus aureus [5],0.03 µg/mL
same,MIC,Staphylococcus aureus [6],0.09 µg/mL
same,MIC,Staphylococcus aureus [7],0.7 µg/mL
same,MIC,Staphylococcus aureus [8],0.04 µg/mL
